Measured values as given in US20240024488A1, “COMPOUNDS AND USES THEREOF” (Foghorn Therapeutics Inc., priority 2020, published 2024).

How the values were obtained:
HiBit-BRM fusion protein = target: T1, HiBit-BRM fusion protein (Homo sapiens, UniProt P51531); experiment: HiBiT-BRM cell-based degradation assay (Nano-Glo HiBiT Lytic Detection, 24 h); conditions: HeLa cell line expressing HiBiT-BRM; for DC50: read-out: BRM HiBit Degradation IC50
T1 construct: expressed in transfected cells
Outline: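 Stable HiBiT-BRM HeLa line; 24 h compound exposure, top final 30 μM, 3-fold, 10 pts in duplicate. Lytic HiBiT/LgBiT luminescence readout. % degradation vs DMSO (0%) and 2 μM known BRM/BRG1 degrader (100%).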

[1] = target: T2, HiBit-BRG1 fusion protein (Homo sapiens, UniProt P51532); experiment: HiBiT-BRG1 cell-based degradation assay (Nano-Glo HiBiT Lytic Detection, 24 h); conditions: HeLa cell line expressing HiBit-BRG1 and LgBit; for Dmax: read-out: BRG1 HiBit Degradation Maximum (%); for DC50: read-out: BRMG1 HiBit Degradation IC50
T2 construct: expressed in transfected cells
T2 sequence (P51532 whole entry, the tested form may be a part): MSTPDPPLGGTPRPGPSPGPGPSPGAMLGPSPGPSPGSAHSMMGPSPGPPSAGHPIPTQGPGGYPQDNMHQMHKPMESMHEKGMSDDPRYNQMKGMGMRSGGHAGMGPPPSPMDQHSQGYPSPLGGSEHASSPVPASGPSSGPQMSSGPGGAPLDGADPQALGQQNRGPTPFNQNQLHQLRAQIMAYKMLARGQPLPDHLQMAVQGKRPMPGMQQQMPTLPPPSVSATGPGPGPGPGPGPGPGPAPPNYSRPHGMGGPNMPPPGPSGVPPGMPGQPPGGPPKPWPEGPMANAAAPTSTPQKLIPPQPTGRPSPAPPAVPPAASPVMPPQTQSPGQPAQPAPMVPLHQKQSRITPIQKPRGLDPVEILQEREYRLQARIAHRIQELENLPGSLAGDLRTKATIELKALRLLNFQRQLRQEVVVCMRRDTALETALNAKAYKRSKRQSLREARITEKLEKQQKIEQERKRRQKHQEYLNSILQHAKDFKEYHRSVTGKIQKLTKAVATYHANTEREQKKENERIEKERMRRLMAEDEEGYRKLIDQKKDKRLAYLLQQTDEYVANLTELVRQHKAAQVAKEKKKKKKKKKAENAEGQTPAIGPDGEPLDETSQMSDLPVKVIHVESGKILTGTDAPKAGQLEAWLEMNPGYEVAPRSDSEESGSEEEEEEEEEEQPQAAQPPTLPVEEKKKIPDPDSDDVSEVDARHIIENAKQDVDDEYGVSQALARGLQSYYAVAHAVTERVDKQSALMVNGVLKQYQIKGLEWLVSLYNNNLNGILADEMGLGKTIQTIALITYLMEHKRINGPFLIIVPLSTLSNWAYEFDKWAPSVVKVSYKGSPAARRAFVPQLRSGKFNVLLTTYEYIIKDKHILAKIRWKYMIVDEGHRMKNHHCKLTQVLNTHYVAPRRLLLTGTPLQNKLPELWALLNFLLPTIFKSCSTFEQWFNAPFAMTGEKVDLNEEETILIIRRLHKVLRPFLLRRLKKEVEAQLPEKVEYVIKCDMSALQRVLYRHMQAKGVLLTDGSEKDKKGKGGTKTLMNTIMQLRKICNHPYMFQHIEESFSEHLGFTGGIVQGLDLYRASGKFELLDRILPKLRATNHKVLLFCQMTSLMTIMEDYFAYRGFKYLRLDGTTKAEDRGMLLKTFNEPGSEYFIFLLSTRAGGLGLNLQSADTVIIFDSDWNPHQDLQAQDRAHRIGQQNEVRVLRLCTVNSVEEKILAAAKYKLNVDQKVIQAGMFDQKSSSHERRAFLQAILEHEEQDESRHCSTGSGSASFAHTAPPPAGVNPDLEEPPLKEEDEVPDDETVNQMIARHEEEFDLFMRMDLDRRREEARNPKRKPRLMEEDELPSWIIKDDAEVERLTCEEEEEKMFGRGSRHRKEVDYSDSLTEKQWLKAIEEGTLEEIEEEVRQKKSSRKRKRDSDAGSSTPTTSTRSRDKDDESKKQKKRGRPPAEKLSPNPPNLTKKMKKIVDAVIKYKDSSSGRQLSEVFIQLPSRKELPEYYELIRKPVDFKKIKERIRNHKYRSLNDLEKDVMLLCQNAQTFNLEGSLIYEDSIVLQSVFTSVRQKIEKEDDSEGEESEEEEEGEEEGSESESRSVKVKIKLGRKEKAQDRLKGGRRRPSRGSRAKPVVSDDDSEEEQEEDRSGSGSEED
Outline: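 Seed 5000 HeLa HiBit-BRG1/LgBit cells per well; treat 24 h; equilibrate 15 min at room temperature; add Nano-Glo HiBiT lytic reagent, shake 10 min, read luminescence. Percent degradation is scaled between DMSO and 2 μM reference degrader wells.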

T1 sequence (P51531 whole entry, the tested form may be a part): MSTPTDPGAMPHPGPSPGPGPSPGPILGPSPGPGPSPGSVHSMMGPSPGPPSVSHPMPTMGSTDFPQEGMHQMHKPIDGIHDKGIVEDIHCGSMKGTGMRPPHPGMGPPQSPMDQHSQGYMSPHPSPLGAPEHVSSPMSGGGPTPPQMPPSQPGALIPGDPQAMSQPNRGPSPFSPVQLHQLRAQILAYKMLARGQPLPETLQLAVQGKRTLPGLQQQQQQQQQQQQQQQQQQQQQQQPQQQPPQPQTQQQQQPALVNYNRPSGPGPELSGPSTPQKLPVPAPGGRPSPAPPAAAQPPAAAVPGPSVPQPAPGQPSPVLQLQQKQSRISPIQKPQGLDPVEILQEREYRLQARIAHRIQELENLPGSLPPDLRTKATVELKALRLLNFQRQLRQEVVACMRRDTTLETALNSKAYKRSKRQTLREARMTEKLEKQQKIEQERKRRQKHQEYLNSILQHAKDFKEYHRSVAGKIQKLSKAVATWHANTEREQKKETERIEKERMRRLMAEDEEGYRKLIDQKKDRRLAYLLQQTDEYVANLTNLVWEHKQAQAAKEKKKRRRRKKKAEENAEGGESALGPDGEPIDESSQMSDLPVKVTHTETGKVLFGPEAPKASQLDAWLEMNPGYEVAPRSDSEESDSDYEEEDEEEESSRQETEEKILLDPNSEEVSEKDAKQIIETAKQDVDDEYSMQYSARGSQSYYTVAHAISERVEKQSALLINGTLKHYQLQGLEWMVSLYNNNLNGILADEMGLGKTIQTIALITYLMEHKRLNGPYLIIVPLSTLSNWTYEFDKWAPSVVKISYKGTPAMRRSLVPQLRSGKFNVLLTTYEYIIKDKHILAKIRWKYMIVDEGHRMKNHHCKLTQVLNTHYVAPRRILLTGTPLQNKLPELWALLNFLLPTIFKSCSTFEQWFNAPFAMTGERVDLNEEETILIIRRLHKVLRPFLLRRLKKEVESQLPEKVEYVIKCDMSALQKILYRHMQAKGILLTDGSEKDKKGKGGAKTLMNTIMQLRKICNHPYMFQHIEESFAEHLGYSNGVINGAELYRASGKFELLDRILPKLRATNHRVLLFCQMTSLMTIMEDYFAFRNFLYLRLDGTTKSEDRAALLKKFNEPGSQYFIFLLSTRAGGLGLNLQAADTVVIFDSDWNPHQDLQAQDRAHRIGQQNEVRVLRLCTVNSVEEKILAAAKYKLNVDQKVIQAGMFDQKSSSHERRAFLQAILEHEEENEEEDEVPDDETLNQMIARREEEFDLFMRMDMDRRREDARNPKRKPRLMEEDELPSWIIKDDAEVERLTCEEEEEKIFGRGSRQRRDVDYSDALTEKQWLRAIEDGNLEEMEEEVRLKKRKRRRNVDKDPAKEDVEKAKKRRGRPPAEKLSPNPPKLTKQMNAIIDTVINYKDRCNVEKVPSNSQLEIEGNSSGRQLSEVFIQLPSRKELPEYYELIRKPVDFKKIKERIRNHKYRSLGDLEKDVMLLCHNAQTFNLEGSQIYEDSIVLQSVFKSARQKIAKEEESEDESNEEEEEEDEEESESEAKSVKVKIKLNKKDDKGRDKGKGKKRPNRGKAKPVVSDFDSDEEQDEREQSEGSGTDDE

| Structure (SMILES) | BRM HiBit Degradation Maximum (%) (HiBit-BRM fusion protein) | Dmax [1] [%] | DC50 (HiBit-BRM fusion protein) [nM] | DC50 [1] [nM] |
| --- | --- | --- | --- | --- |
| Cc1ncsc1-c1ccc([C@H](C)NC(=O)[C@@H]2C[C@@H](O)CN2C(=O)[C@@H](c2cc(OCCCN3CC4(Cc5cc(-c6ccccc6O)nnc5N4)C3)no2)C(C)C)cc1 (racemic) [Compound 84, (2S,4R)-4-hydroxy-1-((R)-2-(3-(3-(3′-(2-hydroxyphenyl)-5′,7′-dihydrospiro[azetidine-3,6′-pyrrolo[2,3-c]pyridazin]-1-yl)propoxy)isoxazol-5-yl)-3-methylbutanoyl)-N-((S)-1-(4-(4-methylthiazol-5-yl)phenyl)ethyl)pyrrolidine-2-carboxamide] | C (“C” indicates maximum degradation < 50%) | < 50 |  |  |
| Cc1ncsc1-c1ccc([C@H](C)NC(=O)[C@@H]2C[C@@H](O)CN2C(=O)[C@@H](c2cc(OCC(=O)N(C)[C@H]3CCc4[nH]c5nnc(-c6ccccc6O)cc5c4C3)no2)C(C)C)cc1 [Compound 106, (2S,4R)-4-hydroxy-1-((R)-2-(3-(2-(((S)-3-(2-hydroxyphenyl)-6,7,8,9-tetrahydro-5H-pyridazino[3,4-b]indol-6-yl)(methyl)amino)-2-oxoethoxy)isoxazol-5-yl)-3-methylbutanoyl)-N-((S)-1-(4-(4-methylthiazol-5-yl)phenyl)ethyl)pyrrolidine-2-carboxamide] | A (“A” indicates maximum degradation ≥ 75%) | < 50 | > 10 |  |
| Cc1ncsc1-c1ccc([C@H](C)NC(=O)[C@@H]2C[C@@H](O)CN2C(=O)C(c2cc(OCCNC3(C(=O)O)CCc4[nH]c5nnc(-c6ccccc6O)cc5c4C3)no2)C(C)C)cc1 (relative stereo) [Compound 90, (6R*)-6-({2-[(5-{1-[(2S,4R)-4-hydroxy-2-{[(1S)-1-[4-(4-methyl-1,3-thiazol-5-yl)phenyl]ethyl]carbamoyl}pyrrolidin-1-yl]-3-methyl-1-oxobutan-2-yl}-1,2-oxazol-3-yl)oxy]ethyl}amino)-3-(2-hydroxyphenyl)-5H,7H,8H,9H-pyridazino[3,4-b]indole-6-carboxylic acid] | A (“A” indicates maximum degradation ≥ 75%) | < 50 | > 1000 |  |
| Cc1ncsc1-c1ccc([C@H](C)NC(=O)[C@@H]2C[C@@H](O)CN2C(=O)[C@@H](c2cc(CCN3CC(c4cc5cc(-c6ccccc6O)nnc5[nH]4)C3)no2)C(C)C)cc1 (single isomer, unassigned) [Compound 152] | B (“B” indicates maximum degradation ≥ 50%) | < 50 | > 100 |  |
| Cc1ncsc1-c1ccc([C@H](C)NC(=O)[C@@H]2C[C@@H](O)CN2C(=O)[C@@H](c2cc(N3CCC(CN4CC5(Cc6cc(-c7ccccc7O)nnc6N5)C4)CC3)no2)C(C)C)cc1 (racemic) [Compound 96, (2S,4R)-4-hydroxy-1-((R)-2-(3-(4-((3′-(2-hydroxyphenyl)-5′,7′-dihydrospiro[azetidine-3,6′-pyrrolo[2,3-c]pyridazin]-1-yl)methyl)piperidin-1-yl)isoxazol-5-yl)-3-methylbutanoyl)-N-((S)-1-(4-(4-methylthiazol-5-yl)phenyl)ethyl)pyrrolidine-2-carboxamide] | A (“A” indicates maximum degradation ≥ 75%) | > 50 | > 10 | > 100 |
| Cc1ncsc1-c1ccc([C@H](C)NC(=O)[C@@H]2C[C@@H](O)CN2C(=O)[C@@H](c2cc(OCCN3CCC[C@@H]3c3c[nH]c4nnc(-c5ccccc5O)cc34)no2)C(C)C)cc1 (single isomer, unassigned) [Compound 228] | C (“C” indicates maximum degradation < 50%) | < 50 |  |  |
| Cc1ncsc1-c1ccc([C@H](C)NC(=O)[C@@H]2C[C@@H](O)CN2C(=O)[C@@H](NC(=O)CCCCCCCCCCCCCC(=O)N2CC(c3cc4cc(-c5ccccc5O)nnc4[nH]3)C2)C(C)(C)C)cc1 [Compound 11, (2S,4R)-4-hydroxy-1-((S)-2-(15-(3-(3-(2-hydroxyphenyl)-7H-pyrrolo[2,3-c]pyridazin-6-yl)azetidin-1-yl)-15-oxopentadecanamido)-3,3-dimethylbutanoyl)-N-((S)-1-(4-(4-methylthiazol-5-yl)phenyl)ethyl)pyrrolidine-2-carboxamide] | B (“B” indicates maximum degradation ≥ 50%) | < 50 | > 100 |  |
| Cc1ncsc1-c1ccc([C@H](C)NC(=O)[C@@H]2C[C@@H](O)CN2C(=O)[C@@H](c2cc(OCCN(C)CCC(=O)N3CC(c4cc5cc(-c6ccccc6O)nnc5[nH]4)C3)no2)C(C)C)cc1 (racemic) [Compound 64, (2S,4R)-4-hydroxy-1-((R)-2-(3-(2-((3-(3-(3-(2-hydroxyphenyl)-7H-pyrrolo[2,3-c]pyridazin-6-yl)azetidin-1-yl)-3-oxopropyl)(methyl)amino)ethoxy)isoxazol-5-yl)-3-methylbutanoyl)-N-((S)-1-(4-(4-methylthiazol-5-yl)phenyl)ethyl)pyrrolidine-2-carboxamide] | B (“B” indicates maximum degradation ≥ 50%) | < 50 | > 100 |  |
| O=C1CCC(N2C(=O)c3ccc(OCCOCCOCCC(=O)N4CC(c5cc6cc(-c7ccccc7O)nnc6[nH]5)C4)cc3C2=O)C(=O)N1 (stereo not drawn) [Compound 24, 2-(2,6-dioxopiperidin-3-yl)-5-(2-(2-(3-(3-(3-(2-hydroxyphenyl)-7H-pyrrolo[2,3-c]pyridazin-6-yl)azetidin-1-yl)-3-oxopropoxy)ethoxy)ethoxy)isoindoline-1,3-dione] | C (“C” indicates maximum degradation < 50%) | < 50 |  |  |
| Cc1ncsc1-c1ccc(CNC(=O)[C@@H]2C[C@@H](O)CN2C(=O)[C@@H](NC(=O)CCCCN2CC(c3cc4cc(-c5ccccc5O)nnc4[nH]3)C2)C(C)(C)C)cc1 (racemic) [Compound 297, (2S,4R)-4-hydroxy-1-((S)-2-(5-(3-(3-(2-hydroxyphenyl)-7H-pyrrolo[2,3-c]pyridazin-6-yl)azetidin-1-yl)pentanamido)-3,3-dimethylbutanoyl)-N-(4-(4-methylthiazol-5-yl)benzyl)pyrrolidine-2-carboxamide] | C (“C” indicates maximum degradation < 50%) | < 50 |  |  |
| O=C1CCC(N2C(=O)c3ccc(NCCOCCOCCC(=O)N4CC(c5cc6cc(-c7ccccc7O)nnc6[nH]5)C4)cc3C2=O)C(=O)N1 (stereo not drawn) [Compound 29, 2-(2,6-dioxopiperidin-3-yl)-5-((2-(2-(3-(3-(3-(2-hydroxyphenyl)-7H-pyrrolo[2,3-c]pyridazin-6-yl)azetidin-1-yl)-3-oxopropoxy)ethoxy)ethyl)amino)isoindoline-1,3-dione] | C (“C” indicates maximum degradation < 50%) | < 50 |  |  |
| Cc1ncsc1-c1ccc([C@H](C)NC(=O)[C@@H]2C[C@@H](O)CN2C(=O)[C@@H](c2cc(N(C)CCN3CCc4[nH]c5nnc(-c6ccccc6O)cc5c4C3)no2)C(C)C)cc1 (racemic) [Compound 182, (2S,4R)-4-hydroxy-1-((R)-2-(3-((2-(3-(2-hydroxyphenyl)-5,7,8,9-tetrahydro-6H-pyrido[3′,4′:4,5]pyrrolo[2,3-c]pyridazin-6-yl)ethyl)(methyl)amino)isoxazol-5-yl)-3-methylbutanoyl)-N-((S)-1-(4-(4-methylthiazol-5-yl)phenyl)ethyl)pyrrolidine-2-carboxamide] | C (“C” indicates maximum degradation < 50%) | < 50 |  |  |
| Cc1ncsc1-c1ccc([C@H](C)NC(=O)[C@@H]2C[C@@H](O)CN2C(=O)[C@@H](c2cc(OCCN3CCC(N4CC(c5cc6cc(-c7ccccc7O)nnc6[nH]5)C4)C3)no2)C(C)C)cc1 (mixture of isomers) [Compound 49, (2S,4R)-4-hydroxy-1-((2R)-2-(3-(2-(3-(3-(3-(2-hydroxyphenyl)-7H-pyrrolo[2,3-c]pyridazin-6-yl)azetidin-1-yl)pyrrolidin-1-yl)ethoxy)isoxazol-5-yl)-3-methylbutanoyl)-N-((S)-1-(4-(4-methylthiazol-5-yl)phenyl)ethyl)pyrrolidine-2-carboxamide] | A (“A” indicates maximum degradation ≥ 75%) | > 50 | > 10 | > 100 |
| Cc1ncsc1-c1ccc([C@H](C)NC(=O)[C@@H]2C[C@@H](O)CN2C(=O)[C@@H](c2cc(OCCN3CCC(N4CC(c5[nH]c6nnc(-c7ccccc7O)cc6c5C)C4)CC3)no2)C(C)C)cc1 (racemic) [Compound 271, (2S,4R)-4-hydroxy-1-((R)-2-(3-(2-(4-(3-(3-(2-hydroxyphenyl)-5-methyl-7H-pyrrolo[2,3-c]pyridazin-6-yl)azetidin-1-yl)piperidin-1-yl)ethoxy)isoxazol-5-yl)-3-methylbutanoyl)-N-((S)-1-(4-(4-methylthiazol-5-yl)phenyl)ethyl)pyrrolidine-2-carboxamide] | A (“A” indicates maximum degradation ≥ 75%) | > 75 | < 10 | > 10 |
| O=C1CCC(N2C(=O)c3ccc(NCCCCCCCCC(=O)N4CC(c5cc6cc(-c7ccccc7O)nnc6[nH]5)C4)cc3C2=O)C(=O)N1 (stereo not drawn) [Compound 9, 2-(2,6-dioxopiperidin-3-yl)-5-((9-(3-(3-(2-hydroxyphenyl)-7H-pyrrolo[2,3-c]pyridazin-6-yl)azetidin-1-yl)-9-oxononyl)amino) isoindoline-1,3-dione] | B (“B” indicates maximum degradation ≥ 50%) | < 50 | > 1000 |  |
